Reference: US8530680B2, “System and method for controlling growth of microorganisms with brominated furanones” (Syracuse University, priority 2008, dated 2013)
Entries after “also recorded” stand apart in the source; their conditions may differ.

Tests used:
[1] = test system: Candida albicans strain SC5341; test: C. albicans growth curves in SD medium with furanones (96-well plates, OD600); assay type: cell-based; details: tested 2.5, 5, 10, 20 μg/mL
Experimental: To evaluate the effects of furanones on fungal growth, C. albicans was grown in a synthetic dextrose (“SD”) medium supplemented with 0, 2.5, 5, 10, or 20 μg/mL of one of eight different brominated furanones and […] furanones (BF1, BF8, BF9, BF11, BF12, BF14, NF1, NF2, or NF3).
The Candida albicans strain SC5341 used in this study was provided by Dr. Sean Palecek from the University of Wisconsin-Madison. C. albicans was routinely grown overnight at 30° C. and shaken at 200 rpm in a SD medium containing 0.67% (wt/vol) yeast nitrogen base without amino acids and 2% (wt/vol) dextrose, which was buffered with 0.165 M morpholinepropanesulfonic acid (MOPS, Sigma), and pH-adjusted to 7.0 with solid NaOH. The overnight culture was then sub-cultured in 25 mL of fresh SD medium to an initial optical density at 600 nm (OD600) of 0.005 and grown till the OD600 reached 1.0. The OD600 values were measured using a Spectronic GENESYS 5 UV-Vis spectrophotometer (Thermo Fisher Scientific®, Waltham, Mass.). This culture was used to inoculate sterile 96-well plates (Costar® No. 9017, Corning®, Corning, N.Y.) containing SD medium supplemented with furanones at different concentrations (0, 2.5, 5, 10, 20 μg/mL) to an OD600 of 0.06 in at least duplicates. The BF1, 8, 9, 11, 12, 14 and NF1-3 compounds were dissolved in ethanol at a concentration of 20 mg/mL. The BF10 compound was dissolved in methanol at a concentration of 20 mg/mL. The amounts of methanol and ethanol were adjusted to be the same for each sample to eliminate the effects of solvents. The samples were then incubated at 30° C. with shaking at 200 rpm, and the OD600 in each well was measured at 0, 4, 7, 17, and 42 hours after inoculation, using an ELx808™ Absorbance Microplate Reader (BioTek Instruments® Inc., Winooski, Vt.).

[2] = test system: Gloeophyllum trabeum strain GT598; test: Fungal growth on MEA plates with furanone; assay type: cell-based; set-up: key to growth on plate, GT598: −: No growth was observed; +: normal growth was seen; details: for growth on plate, GT598: 60 μg/mL, 7 days at 30° C.; for growth inhibition test, inhibitory concentration, GT598: tested at 1, 5, 30, 60 μg/mL, 7 days
Experimental: (§1) This Example examines the effect of brominated furanones on the growth of fungi associated with damage to building material. Six fungal strains were the subject of these experiments; Gloeophyllum trabeum (strains GT598 and GT599), Chaetomium globosum (wildtype strain and CG572), and Trametes versicolor (strains TV7B2-59 and TV57MAD277). The species were developed on 2% Malt-Extract Agar (MEA) plates and stored inverted at 4° C. The stocks were refreshed by streaking new plates every two months.
(§2) The brominated and non-brominated furanones were added to MAE agar plates at different concentrations. The brominated furanones were dissolved in either ethanol (“EtOH”) or methanol (“MeOH”) as stock solutions, as shown in Table 5. The non-brominated furanones were purchased from Sigma (St. Louis, Mo.). The furanone stocks were stored at 4° C.
(§3) MAE agar plates containing the same amounts of ethanol/methanol were also prepared as negative controls to eliminate any solvent effects. The plates were prepared using either 90 mm or 60 mm petri dishes and were stored inverted at 4° C. until use.
(§4) Different concentrations of furanones were studied to compare their antifungal activities. The plates were inoculated with the six fungal strains using a platinum loop and were incubated upside down at 30° C. for 7 days to monitor the growth. The initial screening was performed using a single 60 μg/mL furanone concentration.

[3] = test system: Chaetomium globosum CG572; test: Fungal growth on MEA plates with furanone; assay type: cell-based; set-up: key to growth on plate, CG572: −: No growth was observed; +: normal growth was seen; details: for growth on plate, CG572: 60 μg/mL, 7 days at 30° C.; for growth inhibition test, inhibitory concentration, CG572: tested at 1, 5, 30, 60 μg/mL, 7 days
Experimental: as §1, §2, §3, §4

[4] = test system: P. aeruginosa strain PAO1; test: Microplate based planktonic growth assay of P. aeruginosa; assay type: cell-based, Pseudomonas aeruginosa; details: for reduction of specific growth rate compared to furanone-free control: planktonic growth
Experimental: The antimicrobial activities of furanones on the planktonic growth of P. aeruginosa strain PAO1 was examined using a microplate based growth assay. An overnight culture of the strain grown in LB medium at 30° C. was used to inoculate M63 minimal medium supplemented with furanones at 0, 30 or 60 μg/mL to an optical density at 600 nm (OD600) of 0.05 in 96-well plates. The plates were then incubated at 30° C. with shaking at 200 rpm. The reading of OD600 was measured every 60 minutes for six hours using a microplate reader (ELx808, BioTek Instruments). Six replicates were tested for every sample. The synthesis of the brominated furanones, the structures of which are shown in FIGS. 1A and 1B, was according to Example 1.

[5] = test system: P. aeruginosa strain PAO1 biofilm formation; test: Microplate-based biofilm assay (crystal violet, OD540) of P. aeruginosa; assay type: cell-based, Pseudomonas aeruginosa; details: 24 hours
Experimental: A microplate-based biofilm assay was used to further investigate whether furanones inhibit biofilm formation of P. aeruginosa strain PAO1. For this biofilm assay the strain was grown at 30° C. without shaking in M63 minimal medium containing 13.6 g/L KH2PO4, 2 g/L (NH4)2SO4, 0.5 mg/L FeSO4, 0.12 g/L MgSO4, 5 g/L vitamin free casamino acids and 5 g/L glucose (pH 7.0). The synthesis of the brominated furanones, the structures of which are shown in FIGS. 1A and 1B, was according to Example 1.
The overnight culture of P. aeruginosa was used to inoculate fresh M63 medium supplemented with furanones (0, 30 or 60 μg/mL) to an OD600 of 0.05 in 96-well plates. Four replicates were tested for each condition. The plates were incubated at 30° C. without shaking for 24 hours. The biofilm mass was quantified by following the protocol described previously. Briefly, the planktonic cells were carefully removed by pipetting and the plates with biofilms were washed three times with deionized H2O and dried by gently patting on a piece of paper towel. To quantify biofilms, the plates were stained with 0.1% crystal violet and incubated for 20 minutes at room temperature. The plates were then washed three times with deionized H2O to remove extra dyes. An OD540 was measured to quantify the biofilm on the bottom of each well.

Row | Structure (SMILES) | lowest concentration showing growth inhibition [1] [µg/mL] | growth on plate, GT598 [2] | growth inhibition test, inhibitory concentration, GT598 [2] [µg/mL] | growth on plate, CG572 [3] | growth inhibition test, inhibitory concentration, CG572 [3] [µg/mL] | inhibitory effect on planktonic growth ([4]; 30 μg/mL) | reduction of specific growth rate compared to furanone-free control ([4]; 60 μg/mL) [%] | inhibition of biofilm formation ([5]; 30 μg/mL) | inhibition of biofilm formation ([5]; 60 μg/mL) | reduction of specific growth rate compared to furanone-free control ([4]; 30 μg/mL) [%] | inhibitory effect on planktonic growth ([4]; 30 and 60 μg/mL (up to 60 μg/mL)) | inhibition at 30 µg/mL ([5]; Pseudomonas aeruginosa, PAO1, 30 μg/mL, read-out: inhibition of biofilm formation compared to 24-hour biofilm mass of furanone-free control) [%] | inhibition at 60 µg/mL ([5]; Pseudomonas aeruginosa, PAO1, 60 μg/mL, read-out: inhibition of biofilm formation compared to 24-hour biofilm mass of furanone-free control) [%]
1 | CCCCC1=C(Br)/C(=C/Br)OC1=O [BF1, 4-bromo-5Z-(bromomethylene)-3-butylfuran-2-one] | 20 | − | 30 | − | 30 |  |  |  |  |  |  |  | 
2 | O=C1OC(=C(Br)Br)C=C1C(Br)Br [BF10, 3-(dibromomethyl)-5-(dibromomethylene)furan-2-one] | 20 | − | 30 | − | 30 | did not exhibit significant inhibitory effects | 10 | didn't show apparent inhibition | significantly inhibited; also recorded: inhibited biofilm formation completely |  |  |  | 
3 | CC1=CC(=C(Br)Br)OC1=O [BF9, 5-(dibromomethylene)-3-methylfuran-2-one] | 20 | − | 60 | − | 60 |  | 42.7 | significantly inhibited | significantly inhibited | 29.3 |  |  | 
4 | CC1=C(Br)/C(=C/Br)OC1=O [BF8, 4-bromo-5Z-(bromomethylene)-3-methylfuran-2-one] | 5 | − | 5 | − | 30 | did not exhibit significant inhibitory effects |  | significantly inhibited | significantly inhibited |  | did not inhibit; also recorded: no apparent effect | 86.1 ± 7.6 | 93.8 ± 3.7
